Data taken from patent US11254663B2 (BRISTOL-MYERS SQUIBB COMPANY, priority 2019, dated 2022).
Like-named read-outs stand apart in the source and are kept apart here.

Biological target: FXR (Homo sapiens (Human), UniProt Q96RI1)
Test: transient human FXR/Gal4-luciferase reporter assay
Assay type: cell-based
Procedure, shortened: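 HEK293 cells stably carrying a 5×Gal4 response element–firefly luciferase reporter were transiently transfected overnight with a Gal4 DBD–human FXR LBD fusion plasmid. Compound was added in DMSO and cells were incubated overnight at 37 °C, 5% CO2. Activity was read as Steady-Glo luminescence.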

[1] = Gal4-hFXR fusion construct, HEK293 reporter cells, response relative to 8 μM GW-4064

Chain of FXR (Q96RI1 262-486): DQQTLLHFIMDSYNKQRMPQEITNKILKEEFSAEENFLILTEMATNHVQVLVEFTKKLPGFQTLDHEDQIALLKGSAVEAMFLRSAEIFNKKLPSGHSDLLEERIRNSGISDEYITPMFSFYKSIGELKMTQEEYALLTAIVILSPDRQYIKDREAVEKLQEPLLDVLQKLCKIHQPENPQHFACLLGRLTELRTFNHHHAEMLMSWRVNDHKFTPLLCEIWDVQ

Row | SMILES | EC50 | EC50 [1]
1 | Cc1nc2ccc(-c3cccc(N(CC45CCC(c6nc(C(F)F)no6)(CC4)CC5)C(=O)C45CC(F)(C4)C5)c3)cc2s1 [Example 471, N-((4-(3-(difluoromethyl)-1,2,4-oxadiazol-5-yl)bicyclo[2.2.2]octan-1-yl)methyl)-3-fluoro-N-(3-(2-methylbenzo[d]thiazol-6-yl)phenyl)bicyclo[1.1.1]pentane-1-carboxamide] | 135 nM | –
2 | O=C(N(CC12CCC(c3nc(C4CC4)no3)(CC1)CC2)c1cccc(-c2nc3cc(F)ccc3o2)c1)C12CC(F)(C1)C2 [Example 559, N-((4-(3-Cyclopropyl-1,2,4-oxadiazol-5-yl)bicyclo[2.2.2]octan-1-yl)methyl)-3-fluoro-N-(3-(5-fluorobenzo[d]oxazol-2-yl)phenyl)bicyclo[1.1.1]pentane-1-carboxamide] | – | 217 nM
3 | CCOc1ncc(-c2cccc(N(CC34CCC(c5noc(C(C)(F)F)n5)(CC3)CC4)C(=O)C34CC(F)(C3)C4)c2)cn1 [Example 529, N-((4-(5-(1,1-difluoroethyl)-1,2,4-oxadiazol-3-yl)bicyclo[2.2.2]octan-1-yl)methyl)-N-(3-(2-ethoxypyrimidin-5-yl)phenyl)-3-fluorobicyclo[1.1.1]pentane-1-carboxamide] | 106 nM | –
4 | CCc1cnc(-c2cccc(N(CC34CCC(c5noc(C(C)(C)C)n5)(CC3)CC4)C(=O)C34CC(F)(C3)C4)c2)nc1 [Example 453, N-((4-(5-(tert-butyl)-1,2,4-oxadiazol-3-yl)bicyclo[2.2.2]octan-1-yl)methyl)-N-(3-(5-ethylpyrimidin-2-yl)phenyl)-3-fluorobicyclo[1.1.1]pentane-1-carboxamide] | – | 34 nM
5 | Cc1nc2ccc(-c3ccnc(N(CC45CCC(c6nc(C(C)(C)C)no6)(CC4)CC5)C(=O)C45CC(F)(C4)C5)c3)cc2s1 [Example 551, N-((4-(3-(tert-butyl)-1,2,4-oxadiazol-5-yl)bicyclo[2.2.2]octan-1-yl)methyl)-3-fluoro-N-(4-(2-methylbenzo[d]thiazol-6-yl)pyridin-2-yl)bicyclo[1.1.1]pentane-1-carboxamide] | – | 55 nM
6 | CCOc1ncc(-c2cccc(N(CC34CCC(c5noc(C(C)(C)C)n5)(CC3)CC4)C(=O)C34CC(F)(C3)C4)c2)cn1 [Example 437, N-((4-(5-(tert-butyl)-1,2,4-oxadiazol-3-yl)bicyclo[2.2.2]octan-1-yl)methyl)-N-(3-(2-ethoxypyrimidin-5-yl)phenyl)-3-fluorobicyclo[1.1.1]pentane-1-carboxamide] | – | 39 nM
7 | Cc1nc2ccc(-c3cccc(N(CC45CCC(c6cc(C(F)(F)F)ccn6)(CC4)CC5)C(=O)C45CC(F)(C4)C5)c3)cc2s1 [Example 356, 3-fluoro-N-(3-(2-methylbenzo[d]thiazol-6-yl)phenyl)-N-((4-(4-(trifluoromethyl)pyridin-2-yl)bicyclo[2.2.2]octan-1-yl)methyl)bicyclo[1.1.1]pentane-1-carboxamide] | – | 800 nM
8 | O=C(N(CC12CCC(c3nc(C4CC4)no3)(CC1)CC2)c1cccc(-c2ccc(Cl)c(Cl)c2)c1)C12CC(F)(C1)C2 [Example 286, N-((4-(3-cyclopropyl-1,2,4-oxadiazol-5-yl)bicyclo[2.2.2]octan-1-yl)methyl)-N-(3′,4′-dichloro-[1,1′-biphenyl]-3-yl)-3-fluorobicyclo[1.1.1]pentane-1-carboxamide] | – | 361 nM
9 | CCOc1ccc(-c2cccc(N(CC34CCC(c5ccc(C(F)(F)F)cn5)(CC3)CC4)C(=O)C34CC(F)(C3)C4)c2)cn1 [Example 492, N-(3-(6-ethoxypyridin-3-yl)phenyl)-3-fluoro-N-((4-(5-(trifluoromethyl)pyridin-2-yl)bicyclo[2.2.2]octan-1-yl)methyl)bicyclo[1.1.1]pentane-1-carboxamide] | 567 nM | –
10 | O=C(N(CC12CCC(c3ccc(C(F)(F)F)cn3)(CC1)CC2)c1cccc(-c2ncc(OC(F)F)cn2)c1)C12CC(F)(C1)C2 [Example 499, N-(3-(5-(difluoromethoxy)pyrimidin-2-yl)phenyl)-3-fluoro-N-((4-(5-(trifluoromethyl)pyridin-2-yl)bicyclo[2.2.2]octan-1-yl)methyl)bicyclo[1.1.1]pentane-1-carboxamide] | 135 nM | –
11 | CC(C)S(=O)(=O)Nc1ccc(-c2cccc(N(CC34CCC(c5nc(C6CC6)no5)(CC3)CC4)C(=O)C34CC(F)(C3)C4)c2)cc1 [Example 268, N-((4-(3-cyclopropyl-1,2,4-oxadiazol-5-yl)bicyclo[2.2.2]octan-1-yl)methyl)-3-fluoro-N-(4′-((1-methylethyl)sulfonamido)-[1,1′-biphenyl]-3-yl)bicyclo[1.1.1]pentane-1-carboxamide] | – | 166 nM
12 | COc1ccc(-c2cccc(N(CC34CCC(c5cc(C6CC6)n(C)n5)(CC3)CC4)C(=O)C34CC(F)(C3)C4)c2)cc1 [Example 408, N-((4-(5-cyclopropyl-1-methyl-1H-pyrazol-3-yl)bicyclo[2.2.2]octan-1-yl)methyl)-3-fluoro-N-(4′-methoxy-[1,1′-biphenyl]-3-yl)bicyclo[1.1.1]pentane-1-carboxamide] | – | 160 nM
13 | Cc1nc2ccc(-c3ccnc(N(CC45CCC(c6nc(C7CC7)no6)(CC4)CC5)C(=O)C45CC(F)(C4)C5)c3)cc2o1 [Example 550, N-((4-(3-cyclopropyl-1,2,4-oxadiazol-5-yl)bicyclo[2.2.2]octan-1-yl)methyl)-3-fluoro-N-(4-(2-methylbenzo[d]oxazol-6-yl)pyridin-2-yl)bicyclo[1.1.1]pentane-1-carboxamide] | – | 70 nM
14 | O=C(N(CC12CCC(c3nc(C4CC4)no3)(CC1)CC2)c1cncc(-c2cnc(C(F)(F)F)nc2)c1)C12CC(F)(C1)C2 [Example 428, N-((4-(3-cyclopropyl-1,2,4-oxadiazol-5-yl)bicyclo[2.2.2]octan-1-yl)methyl)-3-fluoro-N-(5-(2-(trifluoromethyl)pyrimidin-5-yl)pyridin-3-yl)bicyclo[1.1.1]pentane-1-carboxamide] | – | 3550 nM
15 | CS(=O)(=O)Nc1ccc(-c2cccc(N(CC34CCC(c5noc(C6(C(F)(F)F)CC6)n5)(CC3)CC4)C(=O)C34CC(F)(C3)C4)c2)cc1 [Example 523, 3-fluoro-N-(4′-(methylsulfonamido)-[1,1′-biphenyl]-3-yl)-N-((4-(5-(1-(trifluoromethyl)cyclopropyl)-1,2,4-oxadiazol-3-yl)bicyclo[2.2.2]octan-1-yl)methyl)bicyclo[1.1.1]pentane-1-carboxamide] | 189 nM | –
16 | Cn1nc(C2CC2)cc1C12CCC(CN(C(=O)C34CC(F)(C3)C4)c3cc(-c4ccc(OC(F)F)cc4)ccn3)(CC1)CC2 [Example 545, N-((4-(3-cyclopropyl-1-methyl-1H-pyrazol-5-yl)bicyclo[2.2.2]octan-1-yl)methyl)-N-(4-(4-(difluoromethoxy)phenyl)pyridin-2-yl)-3-fluorobicyclo[1.1.1]pentane-1-carboxamide] | – | 115 nM
17 | CC(=O)Nc1cccc(-c2cccc(N(CC34CCC(c5nc(C6CC6)no5)(CC3)CC4)C(=O)C34CC(F)(C3)C4)c2)c1 [Example 254, N-(3′-acetamido-[1,1′-biphenyl]-3-yl)-N-((4-(3-cyclopropyl-1,2,4-oxadiazol-5-yl)bicyclo[2.2.2]octan-1-yl)methyl)-3-fluorobicyclo[1.1.1]pentane-1-carboxamide] | – | 241 nM
18 | CCOc1ccc(-c2cccc(N(CC34CCC(c5nc(C(C)C)no5)(CC3)CC4)C(=O)C34CC(F)(C3)C4)c2)cn1 [Example 381, N-(3-(6-ethoxypyridin-3-yl)phenyl)-3-fluoro-N-((4-(3-isopropyl-1,2,4-oxadiazol-5-yl)bicyclo[2.2.2]octan-1-yl)methyl)bicyclo[1.1.1]pentane-1-carboxamide] | – | 40 nM
19 | COc1cc(-c2cccc(N(CC34CCC(c5nc(C6CC6)no5)(CC3)CC4)C(=O)C34CC(F)(C3)C4)c2)ccc1F [Example 260, N-((4-(3-cyclopropyl-1,2,4-oxadiazol-5-yl)bicyclo[2.2.2]octan-1-yl)methyl)-3-fluoro-N-(4′-fluoro-3′-methoxy-[1,1′-biphenyl]-3-yl)bicyclo[1.1.1]pentane-1-carboxamide] | – | 693 nM
20 | O=C(N(CC12CCC(c3nc(C4CC4)no3)(CC1)CC2)c1cccc(-c2cccn3ncnc23)c1)C12CC(F)(C1)C2 [Example 309, N-(3-([1,2,4]triazolo[1,5-a]pyridin-8-yl)phenyl)-N-((4-(3-cyclopropyl-1,2,4-oxadiazol-5-yl)bicyclo[2.2.2]octan-1-yl)methyl)-3-fluorobicyclo[1.1.1]pentane-1-carboxamide] | – | 221 nM
21 | CC(C)c1noc(C23CCC(CN(C(=O)C45CC(F)(C4)C5)c4cccc(-c5ccc(C(F)(F)F)cc5)c4)(CC2)CC3)n1 [Example 380, 3-fluoro-N-((4-(3-isopropyl-1,2,4-oxadiazol-5-yl)bicyclo[2.2.2]octan-1-yl)methyl)-N-(4′-(trifluoromethyl)-[1,1′-biphenyl]-3-yl)bicyclo[1.1.1]pentane-1-carboxamide] | – | 283 nM
22 | CC(C)(O)c1ccc(-c2ccnc(N(CC34CCC(c5ccc(C(C)(F)F)cn5)(CC3)CC4)C(=O)OC(C)(C)C(F)(F)F)c2)cc1 [Example 605, 1,1,1-trifluoro-2-methylpropan-2-yl((4-(5-(1,1-difluoroethyl)pyridin-2-1)bicyclo[2.2.2]octan-1-yl)methyl)(4-(4-(2-hydroxypropan-2-yl)phenyl)pyridin-2-yl)carbamate] | – | 52 nM
23 | Cc1nc2ccc(-c3cccc(N(CC45CCC(c6nc(C7CC7)no6)(CC4)OC5)C(=O)C4CCC(F)(F)C4)c3)cc2s1 (stereo not drawn) [Example 567, N-((1-(3-cyclopropyl-1,2,4-oxadiazol-5-yl)-2-oxabicyclo[2.2.2]octan-4-yl)methyl)-3,3-difluoro-N-(3-(2-methylbenzo[d]thiazol-6-yl)phenyl)cyclopentane-1-carboxamide] | 432 nM | –
24 | Cc1nc2ccc(-c3cccc(N(CC45CCC(c6nc(C(C)C)no6)(CC4)CC5)C(=O)C45CC(F)(C4)C5)c3)cc2s1 [Example 378, 3-fluoro-N-((4-(3-isopropyl-1,2,4-oxadiazol-5-yl)bicyclo[2.2.2]octan-1-yl)methyl)-N-(3-(2-methylbenzo[d]thiazol-6-yl)phenyl)bicyclo[1.1.1]pentane-1-carboxamide] | – | 53 nM
